According to paper PMC6009919, “Newer human inosine 5′-monophosphate dehydrogenase 2 (hIMPDH2) inhibitors as potential anticancer agents” (Journal of Enzyme Inhibition and Medicinal Chemistry, 2018):
Counter-ions that a name gives are not always drawn. Like-named read-outs stand apart in the source and are kept apart here.

Columns and labels:
[1] = target: T1, hIMPDH2 (Homo sapiens, UniProt P12268); experiment: In vitro hIMPDH2 inhibition assay; assay type: biochemical; settings: for inhibition at 10 µM / hIMPDH2 enzyme % Inhibition: ± SD, at 10 µM; for inhibition at 10 µM: read-out: hIMPDH2 enzyme % Inhibition; for IC50: triplicate, determined when inhibition >70% at 10 µM, read-out: hIMPDH2 enzyme IC50 (µM) ± SD
T1 construct: purchased NovoCIB SAS (Lyon, France)
Method: The enzyme (hIMPDH2) was purchased from NovoCIB SAS (Lyon, France). […] The assay was performed in a 200 µl final volume in 96-well UV plates (Tarsons, 980040, Tarsons Products Pvt. Ltd., Kolkata, India) with a reaction buffer composed of 100 mM Tris–HCl (pH 8.6), 100 mM KCl and 5 mM DTT, 4% v/v DMSO plus or minus test compound and 0.15 mU of purified hIMPDH2 enzyme per well (from 1.5 mg/ml stock solution). […] The reaction was initiated by the addition of (substrate buffer) 0.2 mM of IMP and 0.2 mM of NAD^+ and the assay was allowed to proceed at 37 °C for 45 min. The generated NADH was measured by reading the absorbance at 340 nm. […] The MPA (10 µM) was used as a positive control and DMSO as a vehicle control. […] Enzyme inhibition and IC50 values were expressed in % inhibition and μM, respectively.

[2] = test system: MDA-MB-231 (breast adenocarcinoma); experiment: Cell viability (MTT assay), MDA-MB-231; assay type: cell-based; settings: for IC50: MTT, 48-h incubation, triplicate, read-out: Cytotoxicity IC50 (μM) ± SD, MDA-MB-231
Method: (§1) Cancer cell lines such as MDA-MB-231 (breast adenocarcinoma), DU145 (prostate carcinoma) and U87 MG (glioblastoma astrocytoma) were purchased from National Centre for Cell Sciences (NCCS) (Pune, India). Cytotoxic activity of compounds (>80% hIMPDH2 inhibition at 10 μM) was evaluated using colorimetric MTT assay on the above-mentioned cell lines. Briefly, cells were grown in DMEM media supplemented with foetal bovine serum (FBS) 10% and penicillin–streptomycin (50 U/ml, 50 µg/ml) at 37 °C, CO2 (5%) and air (95%). Logarithmically, growing cells were seeded using 96-well plate at different concentrations of the test compounds ranging from 0.01 to 100 μM (seeding density: MDA-MB-231: 10,000 cells/well, DU145: 8000 cells/well, U87 MG: 5000 cells/well). […] Each dilution of test compound was added in triplicate. Following 48-h incubation with the compounds, cells were incubated with MTT reagent (5 mg/ml) for 4 h, and then 100 μl of DMSO was added to dissolve formazan crystals. The absorbance was then measured at 540 nm and 630 nm (background scan) using EPOCH 2 BioTek microplate reader. The IC50 values for the tested compounds were calculated and expressed in μM using mean of triplicate readings.

[3] = test system: DU145 (prostate carcinoma); experiment: Cell viability (MTT assay), DU145; assay type: cell-based; settings: for IC50: MTT, 48-h incubation, triplicate, read-out: Cytotoxicity IC50 (μM) ± SD, DU145
Method: as §1

[4] = test system: U87 MG (glioblastoma astrocytoma); experiment: Cell viability (MTT assay), U87 MG; assay type: cell-based; settings: for IC50: MTT, 48-h incubation, triplicate, read-out: Cytotoxicity IC50 (μM) ± SD, U87 MG
Method: as §1

[5] = hPBMC proliferation assay; assay type: cell-based; settings: human, human peripheral blood mononuclear cells (hPBMC), read-out: % cell viability
Source text: Higher lipophilicity and masking of the –COOH in 1 could possibly be responsible for this observation since usually acids are prevented from entering in the CNS.[35] […] The possibility of the title compounds behaving as prodrugs could be minute due to the difficulty in hydrolysing the amide linkage inside cells and release of the active form “MPA”.

| inhibition at 10 µM [1] [%] | IC50 [1] [µM] | hIMPDH2 enzyme % Inhibition [1] [%] | SMILES | also measured |
| --- | --- | --- | --- | --- |
| 96.1 ± 2.51 | 0.33 ± 0.11 | – | COc1ccc(CNC(=O)CC/C(C)=C/Cc2c(O)c3c(c(C)c2OC)COC3=O)cc1 [Compound 18] | IC50 ([2]; Homo sapiens, MDA-MB-231): 2.42 ± 0.11 µM; IC50 ([3]; Homo sapiens, DU-145): 1.8 ± 0.07 µM; IC50 ([4]; Homo sapiens, U-87 MG): 5.26 ± 0.18 µM |
| 84 ± 2.13 | 0.5 ± 0.18 | – | COc1c(C)c2c(c(O)c1C/C=C(\C)CCC(=O)NCc1ccccc1C)C(=O)OC2 [Compound 23] | IC50 ([2]; Homo sapiens, MDA-MB-231): 0.77 ± 0.04 µM; potency relative to MPA, MDA-MB-231 ([2]; fold vs MPA): five-fold more potent than MPA; IC50 ([3]; Homo sapiens, DU-145): 1.28 ± 0.04 µM; IC50 ([4]; Homo sapiens, U-87 MG): 4.66 ± 0.07 µM |
| – | – | – | COc1cccc2c1C(=O)c1c(O)c3c(c(O)c1C2=O)C[C@@](O)(C(=O)CO)C[C@@H]3O[C@H]1C[C@H](N)[C@H](O)[C@H](C)O1 [Doxorubicin HCl, reference compound] | IC50 ([2]; Homo sapiens, MDA-MB-231): 0.54 ± 0.08 µM; IC50 ([3]; Homo sapiens, DU-145): 0.21 ± 0.06 µM; IC50 ([4]; Homo sapiens, U-87 MG): 0.11 ± 0.02 µM |
| 36 ± 3.86 | – | – | COc1c(C)c2c(c(O)c1C/C=C(\C)CCC(=O)NCCN1CCOCC1)C(=O)OC2 [Compound 26] | – |
| 57.4 ± 1.02 | – | – | COc1c(C)c2c(c(O)c1C/C=C(\C)CCC(=O)NCc1ccncc1)C(=O)OC2 [Compound 21] | – |
| > 70 | 0.73 ± 0.06 | 72.04 ± 1.11 | COc1c(C)c2c(c(O)c1C/C=C(\C)CCC(=O)NCc1ccccc1Cl)C(=O)OC2 [Compound 16] | – |
| – | – | 54.84 ± 1.15 | COc1ccc(NC(=O)CC/C(C)=C/Cc2c(O)c3c(c(C)c2OC)COC3=O)cc1 [Compound 28] | – |
| 30.8 ± 2.82 | – | – | COc1cccc(NC(=O)CC/C(C)=C/Cc2c(O)c3c(c(C)c2OC)COC3=O)c1 [Compound 27, (E)-6–(4-hydroxy-6-methoxy-7-methyl-3-oxo-1,3-dihydroisobenzofuran-5-yl)-N-(3-methoxyphenyl)-4-methylhex-4-enamide] | – |
| – | 0.48 ± 0.02 | 93.62 ± 3.17 | COc1c(C)c2c(c(O)c1C/C=C(\C)CCC(=O)NCCCCc1ccccc1)C(=O)OC2 [Compound 24] | IC50 ([2]; Homo sapiens, MDA-MB-231): 1.46 ± 0.07 µM; IC50 ([3]; Homo sapiens, DU-145): 1.09 ± 0.02 µM; potency relative to MPA, DU145 ([3]; fold vs MPA): three-fold higher potency than MPA; IC50 ([4]; Homo sapiens, U-87 MG): 3.35 ± 0.09 µM; potency relative to MPA, U87 MG ([4]; fold vs MPA): three-fold more active than MPA; viability [5]: 65% |
| > 70 | 0.82 ± 0.32 | 73.94 ± 2.84 | COc1c(C)c2c(c(O)c1C/C=C(\C)CCC(=O)N[C@H](C)c1ccccc1)C(=O)OC2 [Compound 15] | – |
| – | 0.51 ± 0.08 | 87.09 ± 4.54 | COc1c(C)c2c(c(O)c1C/C=C(\C)CCC(=O)NCc1ccc3c(c1)OCO3)C(=O)OC2 [Compound 25] | IC50 [2]: 1.86 ± 0.16 µM; IC50 [3]: 2.53 ± 0.15 µM; IC50 [4]: 8.16 ± 0.27 µM |
| 59.4 ± 1.81 | – | – | COc1c(C)c2c(c(O)c1C/C=C(\C)CCC(=O)NCc1ccccn1)C(=O)OC2 [Compound 22] | – |
| – | 0.57 ± 0.11 | 81.36 ± 1.95 | COc1c(C)c2c(c(O)c1C/C=C(\C)CCC(=O)NCc1ccc(Cl)cc1)C(=O)OC2 [Compound 20] | IC50 [2]: 4.1 ± 0.23 µM; IC50 [3]: 2.69 ± 0.11 µM; IC50 [4]: 7.31 ± 0.17 µM |
| 73.4 ± 3.62 | 0.6 ± 0.13 | – | COc1c(C)c2c(c(O)c1C/C=C(\C)CCC(=O)NCc1ccc(C)cc1)C(=O)OC2 [Compound 19] | – |
| – | – | 67.18 ± 4.16 | COc1c(C)c2c(c(O)c1C/C=C(\C)CCC(=O)NCc1ccco1)C(=O)OC2 [Compound 17] | – |
| 59.1 ± 1.91 | – | – | COc1c(C)c2c(c(O)c1C/C=C(\C)CCC(=O)N[C@@H](C)c1ccccc1)C(=O)OC2 [Compound 14, (S)(E)-6–(4-hydroxy-6-methoxy-7-methyl-3-oxo-1,3-dihydroisobenzofuran-5-yl)-4-methyl-N-(1-phenylethyl)hex-4-enamide] | – |
| 99.9 ± 1.2 | – | – | COc1c(C)c2c(c(O)c1C/C=C(\C)CCC(=O)O)C(=O)OC2 [Compound 1, Mycophenolic acid, reference compound] | IC50 ([2]; Homo sapiens, MDA-MB-231): 4.38 ± 0.06 µM; IC50 ([3]; Homo sapiens, DU-145): 2.94 ± 0.09 µM; IC50 ([4]; Homo sapiens, U-87 MG): 10.7 ± 0.21 µM; viability [5]: 63% |
